Results as given in publication PMC2263054, “Functional evolution of the vitamin D and pregnane X receptors” (BMC Evolutionary Biology, 2007).
Where two headings read alike, the source gives them in different places.

Tests used:
[1] = test system: testosterone 6β-hydroxylation; assay: testosterone hydroxylation (HPLC) in sea lamprey primary hepatocytes; type: cell-based; conditions: concentration ranges per compound
Description: 100 μL of sample, calibration standard, or quality material standard were pipetted into separate microcentrifuge tubes and mixed with 100 μL of methanol. Samples were vortexed and centrifuged at 13,000 rpm for 4 min. The supernatant was then injected into the HPLC.
The flow rate was 1.2 mL/min and total run time was 25 min.

Xenopus laevis VDR = target: T1, Xenopus laevis VDR (Xenopus laevis, UniProt O13124); assay: luciferase reporter transactivation assay in HepG2-NTCP cells, GAL4/xlVDR LBD chimera with tk-UAS-Luc; type: cell-based; conditions: for EC50 / Xenopus VDR EC50 ± SD: HepG2-NTCP cells, luciferase reporter; for EC50: read-out: Xenopus VDR EC50 ± SD; for Xenopus VDR EC50 ± SD: unit not given, also cells saying No effect; for Effect on Xenopus laevis VDR: screening for activators, at least three concentrations of each drug
T1 sequence (O13124 90-422): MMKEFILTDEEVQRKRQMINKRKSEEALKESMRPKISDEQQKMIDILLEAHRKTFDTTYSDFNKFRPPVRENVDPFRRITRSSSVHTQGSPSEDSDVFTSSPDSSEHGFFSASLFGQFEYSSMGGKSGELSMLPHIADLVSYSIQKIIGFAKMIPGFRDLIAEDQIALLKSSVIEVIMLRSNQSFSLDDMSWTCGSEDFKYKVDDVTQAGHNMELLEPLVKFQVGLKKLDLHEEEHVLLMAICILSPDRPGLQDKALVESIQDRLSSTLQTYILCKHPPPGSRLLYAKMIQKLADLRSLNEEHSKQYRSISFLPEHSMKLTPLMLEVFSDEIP

Mouse VDR = target: T2, Mouse VDR (Mus musculus, UniProt P48281); assay: luciferase reporter transactivation assay in HepG2-NTCP cells, full-length mVDR with CYP3A4-PXRE-Luc
T2 sequence (P48281 1-422): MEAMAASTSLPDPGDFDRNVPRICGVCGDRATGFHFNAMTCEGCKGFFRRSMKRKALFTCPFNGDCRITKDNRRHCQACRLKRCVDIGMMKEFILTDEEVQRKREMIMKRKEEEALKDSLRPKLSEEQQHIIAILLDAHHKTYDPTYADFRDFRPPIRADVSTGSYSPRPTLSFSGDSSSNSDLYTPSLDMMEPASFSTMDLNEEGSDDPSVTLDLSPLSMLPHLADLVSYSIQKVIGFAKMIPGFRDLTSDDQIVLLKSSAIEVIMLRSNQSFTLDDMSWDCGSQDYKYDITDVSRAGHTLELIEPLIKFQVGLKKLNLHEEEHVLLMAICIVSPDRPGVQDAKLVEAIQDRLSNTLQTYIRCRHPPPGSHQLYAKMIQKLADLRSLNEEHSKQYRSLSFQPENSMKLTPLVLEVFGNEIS

Sea lamprey VDR = target: T3, Sea lamprey VDR (Petromyzon marinus, UniProt Q7ZZY9); type: cell-based; conditions: for Sea lamprey VDR EC50 ± SD: unit not given, also cells saying No effect; for Effect on sea lamprey VDR: screening for activators, at least three concentrations of each drug
T3 sequence (Q7ZZY9 92-406): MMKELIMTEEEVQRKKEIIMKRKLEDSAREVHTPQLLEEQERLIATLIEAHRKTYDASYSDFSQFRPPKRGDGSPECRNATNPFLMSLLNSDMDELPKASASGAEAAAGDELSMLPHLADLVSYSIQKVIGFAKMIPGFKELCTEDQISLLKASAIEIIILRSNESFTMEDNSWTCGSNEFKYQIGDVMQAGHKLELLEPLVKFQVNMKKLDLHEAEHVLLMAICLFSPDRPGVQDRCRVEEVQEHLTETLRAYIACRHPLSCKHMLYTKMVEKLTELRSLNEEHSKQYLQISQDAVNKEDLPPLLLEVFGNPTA

Zebrafish VDR = target: T4, Zebrafish VDR (Danio rerio, UniProt Q9PTN2); assay: luciferase reporter transactivation assay in HepG2-NTCP cells, GAL4/zfVDR LBD chimera with tk-UAS-Luc; type: cell-based; conditions: for EC50 / Zebrafish VDR EC50 ± SD: HepG2-NTCP cells, luciferase reporter; for EC50: read-out: Zebrafish VDR EC50 ± SD; for Zebrafish VDR EC50 ± SD: unit not given, also cells saying No effect; for Effect on zebrafish VDR: screening for activators, at least three concentrations of each drug
T4 sequence (Q9PTN2 121-453): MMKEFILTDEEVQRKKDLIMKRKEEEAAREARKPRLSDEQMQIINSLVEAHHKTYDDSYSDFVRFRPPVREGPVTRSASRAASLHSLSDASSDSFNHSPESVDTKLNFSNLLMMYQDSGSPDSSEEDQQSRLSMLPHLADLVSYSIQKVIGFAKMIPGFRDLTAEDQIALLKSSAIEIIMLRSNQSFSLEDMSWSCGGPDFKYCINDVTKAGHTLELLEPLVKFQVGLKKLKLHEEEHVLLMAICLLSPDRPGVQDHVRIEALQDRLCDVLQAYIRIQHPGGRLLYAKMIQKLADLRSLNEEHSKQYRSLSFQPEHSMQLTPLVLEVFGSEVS

Human VDR = target: T5, Human VDR (Homo sapiens, UniProt P11473); assay: luciferase reporter transactivation assay in HepG2-NTCP cells, full-length hVDR with CYP3A4-PXRE-Luc
T5 sequence (P11473 1-427): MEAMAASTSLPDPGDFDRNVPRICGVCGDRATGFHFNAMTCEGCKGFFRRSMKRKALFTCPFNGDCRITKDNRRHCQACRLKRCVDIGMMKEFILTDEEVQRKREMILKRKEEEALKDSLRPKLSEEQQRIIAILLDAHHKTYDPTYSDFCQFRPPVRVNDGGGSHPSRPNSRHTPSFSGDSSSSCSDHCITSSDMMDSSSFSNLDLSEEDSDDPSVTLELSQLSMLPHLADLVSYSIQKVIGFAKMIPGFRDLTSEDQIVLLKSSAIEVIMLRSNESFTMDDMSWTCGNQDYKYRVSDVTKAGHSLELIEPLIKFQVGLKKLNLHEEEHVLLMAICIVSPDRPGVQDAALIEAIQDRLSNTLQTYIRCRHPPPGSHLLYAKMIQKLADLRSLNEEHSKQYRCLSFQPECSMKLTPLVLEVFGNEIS

[2] = test system: ethoxyresorufin O-deethylase (EROD) activity (CYP1A-like activity); assay: EROD assay in zebrafish primary hepatocytes; conditions: zebrafish primary hepatocytes; DIM at concentrations of 2 μM and greater
Description: The cells are cultured at 26°C in ambient atmosphere.

[3] = relative to maximal reference compound (1 μM calcitriol, efficacy = 1.0)
[4] = HepG2-NTCP cells, luciferase reporter, unit not given, also cells saying No effect
[5] = HepG2-NTCP cells, luciferase reporter

Compound | effect on testosterone 6β-hydroxylation [1] | Ciona VDR/PXR EC50 ± SD (Ciona VDR/PXR; [4]) | Xenopus VDR EC50 ± SD (Xenopus laevis VDR) | Effect on Xenopus laevis VDR (Xenopus laevis VDR) | Sea lamprey VDR EC50 ± SD (Sea lamprey VDR; [5]) | Effect on sea lamprey VDR (Sea lamprey VDR) | Zebrafish VDR EC50 ± SD (Zebrafish VDR) | Effect on zebrafish VDR (Zebrafish VDR) | other results
C=C1CC[C@H](O)C/C1=C/C=C1\CCC[C@]2(C)[C@@H]([C@H](C)CCCC(C)(C)O)CC[C@@H]12 [25-Hydroxyvitamin D3] | None of these compounds produced significant increases in testosterone 6β-hydroxylation | No effect |  |  |  |  |  |  | EC50 (Xenopus laevis VDR): 11000 ± 800 nM; Xenopus VDR relative efficacy (Xenopus laevis VDR; [3]): 0.67; Mouse VDR relative efficacy (Mouse VDR): 2.62; EC50 (Mouse VDR; read-out: Mouse VDR EC50 ± SD, HepG2-NTCP cells, luciferase reporter): 600 ± 100 nM; Sea lamprey VDR relative efficacy (Sea lamprey VDR): 0.63; EC50 (Sea lamprey VDR; HepG2-NTCP cells, luciferase reporter, read-out: Sea lamprey VDR EC50 ± SD): 19000 ± 2100 nM; EC50 (Zebrafish VDR): 7300 ± 800 nM; Zebrafish VDR relative efficacy (Zebrafish VDR; [3]): 0.91; Human VDR relative efficacy (Human VDR): 1.22; EC50 (Human VDR; read-out: Human VDR EC50 ± SD, HepG2-NTCP cells, luciferase reporter, unit M): 1500 ± 200 nM
C[C@H](CCC(=O)O)[C@H]1CC[C@H]2[C@@H]3CC[C@@H]4CC(=O)CC[C@]4(C)[C@H]3CC[C@]12C [3-Ketolithocholic acid] |  |  | No effect | No effect | No effect | No effect | No effect | No effect | Mouse VDR EC50 ± SD (Mouse VDR): 20 ± 0.3 (0.58); Ciona VDR/PXR EC50 ± SD (Ciona VDR/PXR): No effect; Human VDR EC50 ± SD (Human VDR): 55 ± 8.1 (0.17)
C[C@H](CCCO)[C@H]1CC[C@H]2[C@@H]3[C@H](O)C[C@H]4CC(=O)CC[C@]4(C)[C@H]3C[C@H](O)[C@]12C [3-keto-5α-petromyzonol] | None of these compounds produced significant increases in testosterone 6β-hydroxylation |  |  |  |  |  |  |  | 
C=C1/C(=C\C=C2/CCC[C@]3(C)[C@@H]([C@H](C)CCCC(C)C)CC[C@@H]23)C[C@@H](O)C[C@@H]1O [1α-Hydroxyvitamin D3] |  |  |  |  |  |  |  |  | EC50 (Xenopus laevis VDR): 157 ± 10 nM; EC50 (Mouse VDR): 0.3 ± 0.04 nM; EC50 (Zebrafish VDR): 18 ± 1.4 nM; EC50 (Human VDR): 4.3 ± 0.5 nM
C[C@]12CC[C@@H](O)C[C@@H]1CC[C@@H]1[C@@H]2CC[C@]2(C)C=CC[C@@H]12 [5α-androst-16-en-3α-ol] | None of these compounds produced significant increases in testosterone 6β-hydroxylation |  |  | No effect |  | No effect |  | No effect | 
C[C@H](CCC(=O)NCCS(=O)(=O)O)[C@H]1CC[C@H]2[C@@H]3CC[C@@H]4C[C@H](O)CC[C@]4(C)[C@H]3CC[C@]12C [Taurolithocholic acid] |  | No effect | No effect |  | No effect |  | No effect |  | Mouse VDR relative efficacy (Mouse VDR; relative to maximal reference compound (0.5 μM calcitriol, efficacy = 1.0)): 0.23; Human VDR EC50 ± SD (Human VDR; [4]): No effect
C[C@H](CCC(=O)NCC(=O)O)[C@H]1CC[C@H]2[C@@H]3CC[C@@H]4C[C@H](O)CC[C@]4(C)[C@H]3CC[C@]12C [Glycolithocholic acid] |  | No effect | No effect |  | No effect |  | No effect |  | Mouse VDR relative efficacy (Mouse VDR): 0.28; Human VDR EC50 ± SD (Human VDR; [4]): No effect
c1ccc2c(Cc3c[nH]c4ccccc34)c[nH]c2c1 [3,3'-diindoylmethane] |  |  |  | No effect |  | No effect |  | No effect | effect on EROD activity [2]: caused a decrease in EROD activity
